The values below come from paper PMC9762789, “Chromone-based monoamine oxidase B inhibitor with potential iron-chelating activity for the treatment of Alzheimer’s disease” (Journal of Enzyme Inhibition and Medicinal Chemistry, 2022).

One data set is described as follows: PAMPA-BBB assay. It counts as in vitro ADME. An excerpt: Good blood–brain barrier (BBB) permeability is the key to exerting drug efficacy in the treatment of central nervous system diseases. To evaluate whether the target compound could penetrate BBB, a parallel artificial membrane permeability assay (PAMPA) was used to predict[32]^,[33]. […] Therefore, due to its potential ability to cross the BBB, compound 17d was selected for subsequent assay.
PAMPA was used to predict the BBB permeability of the screened compound. The detailed process has been mentioned in our early work[32]^,[33].
For orientation: In PAMPA a lipid-coated filter parts donor from acceptor wells.

Data set [1] can be described thus: pKa determination by automated spectrophotometric titration. It counts as physicochemical. To be noted: 0.1 M KCl solution.
Data set [2] has as its target T1, MAO-B (Homo sapiens, UniProt P27338).
T1 construct: purchased Sigma-Aldrich
T1 sequence (P27338 1-520): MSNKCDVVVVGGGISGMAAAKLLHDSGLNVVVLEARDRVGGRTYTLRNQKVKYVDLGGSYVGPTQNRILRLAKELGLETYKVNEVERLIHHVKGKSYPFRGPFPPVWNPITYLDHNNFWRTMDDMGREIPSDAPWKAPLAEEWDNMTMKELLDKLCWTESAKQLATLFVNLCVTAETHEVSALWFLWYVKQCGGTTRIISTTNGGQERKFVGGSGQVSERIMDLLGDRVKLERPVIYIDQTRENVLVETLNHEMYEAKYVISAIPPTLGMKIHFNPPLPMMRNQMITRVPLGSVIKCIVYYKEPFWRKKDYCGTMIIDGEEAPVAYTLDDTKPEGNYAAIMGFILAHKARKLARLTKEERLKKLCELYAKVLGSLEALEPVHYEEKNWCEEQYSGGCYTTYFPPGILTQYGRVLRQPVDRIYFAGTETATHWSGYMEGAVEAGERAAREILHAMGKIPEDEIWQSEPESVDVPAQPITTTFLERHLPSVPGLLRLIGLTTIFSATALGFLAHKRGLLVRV
Put plainly: hMAO-B inhibition assay. Format: biochemical. As for the experimental part:
The reagents and enzymes (Human MAO-B and Human MAO-A) applied in this experiment were purchased from Sigma-Aldrich. According to the manuals, all components (substrate solution and enzyme solution) are diluted and placed aside for use. The detailed process has been mentioned in our early work[34].

A further data set has as its target T2, Human MAO-A (Homo sapiens, UniProt P21397).
T2 construct: purchased Sigma-Aldrich
T2 sequence (P21397 1-527): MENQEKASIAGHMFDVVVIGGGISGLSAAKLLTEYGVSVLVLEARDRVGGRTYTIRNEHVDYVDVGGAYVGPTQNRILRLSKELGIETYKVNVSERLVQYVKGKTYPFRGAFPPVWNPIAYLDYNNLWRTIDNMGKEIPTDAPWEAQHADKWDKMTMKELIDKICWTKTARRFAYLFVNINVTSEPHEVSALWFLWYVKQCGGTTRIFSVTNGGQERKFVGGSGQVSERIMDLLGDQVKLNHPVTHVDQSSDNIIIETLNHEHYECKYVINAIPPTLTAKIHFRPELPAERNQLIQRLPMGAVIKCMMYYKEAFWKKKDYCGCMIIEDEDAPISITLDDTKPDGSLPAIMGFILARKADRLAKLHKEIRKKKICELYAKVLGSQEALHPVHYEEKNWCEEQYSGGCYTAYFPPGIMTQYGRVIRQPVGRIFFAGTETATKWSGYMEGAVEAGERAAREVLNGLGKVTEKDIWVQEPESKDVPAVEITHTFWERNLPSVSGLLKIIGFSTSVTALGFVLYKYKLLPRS
Briefly: hMAO-A inhibition assay. Format: biochemical. An outline of the steps: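 Inhibition of hMAO-A was tested using diluted substrate and enzyme solutions per kit manuals. Selectivity index was calculated as IC50 (hMAO-A)/IC50 (hMAO-B).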

The subject of a further data set is PC-12 cells. Put plainly: Cytotoxicity test (MTT). To be noted: 24 h, up to 50 µM. It counts as cell-based. As for the experimental part: (§1) To examine the interaction mode of 17d on MAO-B, kinetic studies were carried out. From the Lineweaver–Burk plots (Figure 5(B)), we observed that 17d operated by a non-competitive inhibition mechanism. […] Subsequently, the potential toxic effect of 17d was investigated on pheochromocytoma (PC-12) cells.
Neural pheochromocytoma-derived PC-12 cells at the log phase of their growth cycle (8 × 10^4 cells/ml) were added to each well (100 μl/well) and incubated for 24 h at 37 °C in a humidified atmosphere of 5% CO2. Then three replicates at various concentrations of the samples (3.13, 6.25, 12.5, 25, and 50 μM) were added to each well (100 μl/well). After incubating for 24 h, 20 μl of MTT solution (5 mg/ml/well) was added to each culture medium, which was then incubated for another 4 h. Then DMSO was added to each well (150 μl/well). After 10 min at room temperature, the OD values of each well were measured on a Microplate Reader (BioTek ELx800, Winooski, VT) at the wavelength of 490 nm.

Data set [3] has as its target T1, MAO-B. Briefly: MAO-B kinetic study (Michaelis-Menten, Lineweaver-Burk, p-tyramine substrate). It counts as biochemical. As for the experimental part:
Figure 5. Kinetic study and cytotoxicity assay of compound 17d. […] The Cytotoxicity effect of compound 17d on PC-12 cells (C).
as §1
To further examine the interaction mode of compound 17d, the type of enzyme inhibition was determined by Michealis–Menten kinetic experiments. The catalytic rates of MAO‐B enzyme were measured at six different concentrations of substrate p‐tyramine (0.05, 0.1, 0.25, 0.5, 1.0, and 1.25 mM) in the absence and in the three different concentrations (33.3, 100, and 300 nM) of compound 17d. The corresponding dose‐response curves and the nonlinear/linear regression analysis were performed using GraphPad Prism version 6 software (Graphpad Software Inc., La Jolla, CA).

Entries after “also recorded” stand apart in the source; their conditions may differ. Where two headings read alike, the source gives them in different places.

`COc1ccc2c(=O)c(CNCCn3ccc(=O)c(O)c3C)coc2c1` [Compound 17d, 3-Hydroxy-1–(2-(((7-methoxy-4-oxo-4H-chromen-3-yl)methyl)amino)ethyl)-2-methylpyridin-4(1H)-one]: the melting point – broadly, the temperature, or range, at which the solid turns liquid – fell in the range of 252 to 254 °C. Besides, the Papp in “PAMPA-BBB assay” (PAMPA-BBB, mean ± SEM of eight independent experiments, read-out: Pe ± SEM) came to 2.73 ± 0.07 ×10⁻⁶ cm/s. For the same molecule, the CNS result in the data set “PAMPA-BBB assay” (class from PAMPA-BBB Pe) is reported as “± (CNS (±) (BBB permeation uncertain); Pe (× 10^−6 cm s^−1) from 2.0 to 4.0)”. Moreover, the pKa in data set [1] (read-out: pKa1) came out at 2.86. Moreover, the pKa in data set [1] (read-out: pKa2) was determined as 9.78. Moreover, on MAO-B [2], the half-inhibitory concentration (IC50) (in general, the concentration that inhibits the measured activity by half) worked out at 67 ± 4.3 nM and the “SI: hMAO-B selectivity index = IC50 (hMAO-A)/IC50 (hMAO-B)” value stood at 11.0. Also, the inhibition at 0.1 µM at MAO-B [2] (hMAO-B, 100 nM, read-out: Inhibitory rate (%, 100 nM)) stood at 48.9 ± 1.4%. Moreover, the 50% inhibitory concentration (IC50) at Human MAO-A turned out to be 739 ± 21.9 nM. Further, the cytotoxicity result with PC-12 cells is reported as “no cytotoxicity; also recorded: noncytotoxic”. The inhibition mechanism result on MAO-B [3] (Lineweaver–Burk plots) is listed as “non-competitive”. The inhibition constant (Ki) (commonly a dissociation constant, usually derived from enzyme kinetics or from competition with a known ligand) at MAO-B [3] (p-tyramine substrate, GraphPad Prism, read-out: inhibition constant (Ki)) is 74.7 nM.
